Common to all, as to format: binding
The target of one assay is T1, GABARAPL2 (Homo sapiens, UniProt P60520).
T1 construct: GABARAPL2_ATG8__P60520_2_115; GST (cleaved yes); made in house; host or cells: Escherichia coli BL21-Gold(DE3)
The experiment in a line: FP displacement assay, GABARAPL2. Conditions: read-out: KD values ± SEM. The protocol:
(§1) FP experiments were performed as described previously (Kliche et al, [2021]). Shortly, in order to monitor the binding event, FITC‐labelled peptides were used (excitation 495 nm, emission: 535 nm) and the FP signal was recorded in mP on a SpectraMax iD5 Multi‐Mode Microplate Reader (Molecular Devices) by measuring the emitted light in two angels. The measurements were performed at room temperature and prepared in nonbinding black half area 96‐well microplates (Corning®; 50 μl/well). For measuring direct binding, that is saturation curves, a 1:1 dilution series of protein domain (25 μl/well) was generated in 50 mM sodium phosphate buffer pH 7.4 and the measurement performed with 5 nM FITC‐labelled peptide (25 μl/well). The buffer‐corrected values were subsequently plotted with PRISM and fitted to the quadratic equation (Gianni et al, [2005]).
(§2) The 1:1 dilution series in this experiment was performed with the unlabelled peptide in 50 mM sodium phosphate buffer pH 7.4, so that each well‐contained unlabelled peptide (25 μl) at a certain concentration and pre‐formed complex (25 μl). The KD values of this indirectly monitored binding event were calculated as described previously (Nikolovska‐Coleska et al, [2004]). All measurements were at least in technical triplicates as well as biological duplicates when indicated. An amplitude shift between repeat measurements in the displacement experiments was occasionally observed due to variations in the protein preparations. If that was the case, the “active” protein concentration was back‐calculated according to the quadratic equation from the saturation curves performed in parallel. By comparing the active protein concentrations in the complex between different protein preparations, the amplitude was normalised.

Another assay concerns the target T2, MAP1LC3A (Homo sapiens, UniProt Q9H492).
T2 construct: GST (cleaved yes); made in house; host or cells: Escherichia coli BL21-Gold(DE3)
The experiment in a line: FP displacement assay, MAP1LC3A. Particulars: for IC50: Fig 4B, MAP1LC3A ATG8, FP displacement, technical triplicates, read-out: IC50 values of displacement curves, with SEM; for Kd: read-out: KD values ± SEM.

The target in another assay is T3, MAP1LC3B (Homo sapiens, UniProt Q9GZQ8).
T3 construct: GST (cleaved yes); made in house; host or cells: Escherichia coli BL21-Gold(DE3)
The experiment in a line: FP displacement assay, MAP1LC3B. Particulars: read-out: KD values ± SEM. The protocol:
as §1, §2

For another assay, the target named is T4, SNX27 PDZ (Homo sapiens, UniProt Q96L92).
T4 construct: SNX27_PDZ__Q96L92_40_141; made in house; host or cells: Escherichia coli BL21-Gold(DE3)
Nature of the assay: FP displacement assay, SNX27 PDZ (MBP-tagged). Particulars: for Kd: MBP-tagged domain, probe FITC-SYT16 5 nM, 50 mM sodium phosphate pH 7.4, room temperature, at least three technical replicates, read-out: KD values ± SEM. The protocol:
For FP, ITC and crystallisation, the tag was removed with the appropriate protease either on beads (0.1 mg/ml thrombin (Cytiva) in PBS, 1 mM dithiothreitol (DTT)) or by dialysis in cleavage buffer (Human Rhinovirus (HRV) 3C protease: 50 mM Tris–HCl pH 7.4, 150 mM NaCl, 1 mM β‐mercaptoethanol), both procedures were overnight. In case of HRV protease cleavage, the tag was separated from the target protein domain by reverse ion metal affinity chromatography using Ni^2+ beads for purification, whereas thrombin was removed using a benzamidine column (Cytiva). Affinity measurements for SNX27 PDZ were performed on the MBP‐tagged construct, as well as PIN1 WW domain on the GST‐tagged construct. For FP and ITC, proteins were dialysed in 50 mM sodium phosphate buffer pH 7.4, 1 mM DTT. For crystallisation of the NTD of clathrin, the protein was further purified by a S200 Sepharose column (Cytiva) using 20 mM Tris–HCl pH 7.4, 150 mM NaCl and 1 mM DTT.
as §1, §2

Each structure is given as a SMILES string. Non-standard residues stand in square brackets, D forms with d. Residues, ends and D or L forms follow the SMILES beside them. pS = N[C@@H](COP(=O)(O)O)C(=O)O

T1 sequence (P60520 2-115): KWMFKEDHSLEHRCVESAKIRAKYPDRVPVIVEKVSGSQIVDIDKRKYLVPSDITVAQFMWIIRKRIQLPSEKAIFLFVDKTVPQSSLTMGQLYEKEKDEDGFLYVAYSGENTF

As usually defined, the Kd is the equilibrium constant for the complex coming apart. For orientation: IC50 means the concentration at which inhibition is half-maximal. On to `CC(=O)N[C@@H](Cc1ccc(O)cc1)C(=O)N[C@@H](CCCCN)C(=O)N[C@@H](CCCCN)C(=O)N[C@@H](CCC(N)=O)C(=O)N[C@@H](CC(C)C)C(=O)N[C@@H](CCCCN)C(=O)N[C@@H](CCCNC(=N)N)C(=O)N[C@@H](Cc1ccccc1)C(=O)N[C@@H](COP(=O)(O)O)C(=O)N[C@H](C(=O)N[C@@H](CCC(=O)O)C(=O)N[C@@H](CCC(=O)O)C(=O)N[C@@H](Cc1ccccc1)C(=O)N[C@H](C(=O)N[C@@H](CC(C)C)C(=O)N[C@@H](CC(C)C)C(=O)O)C(C)C)[C@@H](C)O` [ATG4C444–458 pS], for which the Kd turned out to be 0.1 ± 0.2 µM on GABARAPL2, 1.3 ± 0.1 µM on MAP1LC3A and 1.9 ± 0.3 µM on MAP1LC3B. Besides, on MAP1LC3A, the half-inhibitory concentration (IC50) was determined as 5.5 ± 0.7 µM.

Consider `CC(=O)N[C@@H](Cc1ccc(O)cc1)C(=O)N[C@@H](CCCCN)C(=O)N[C@@H](CCCCN)C(=O)N[C@@H](CCC(N)=O)C(=O)N[C@@H](CC(C)C)C(=O)N[C@@H](CCCCN)C(=O)N[C@@H](CCCNC(=N)N)C(=O)N[C@@H](Cc1ccccc1)C(=O)N[C@@H](CO)C(=O)N[C@H](C(=O)N[C@@H](CCC(=O)O)C(=O)N[C@@H](CCC(=O)O)C(=O)N[C@@H](Cc1ccccc1)C(=O)N[C@H](C(=O)N[C@@H](CC(C)C)C(=O)N[C@@H](CC(C)C)C(=O)O)C(C)C)[C@@H](C)O` [ATG4C444–458 wt], for which the Kd at GABARAPL2 is 0.8 ± 0.4 µM; at MAP1LC3A, 5.2 ± 0.2 µM; at MAP1LC3B, 7.1 ± 0.6 µM. Further, the IC50 on MAP1LC3A was 17 ± 1 µM.

For `CC(=O)N[C@@H](CC(N)=O)C(=O)N[C@@H](CC(C)C)C(=O)N[C@@H](CC(C)C)C(=O)N[C@@H](CC(C)C)C(=O)N[C@@H](CCC(=O)O)C(=O)N[C@@H](CCCNC(=N)N)C(=O)N[C@@H](CC(=O)O)C(=O)N[C@H](C(=O)N[C@@H](COP(=O)(O)O)C(=O)N[C@@H](Cc1ccccc1)C(=O)N[C@H](C(=O)N[C@H](C(=O)N[C@@H](C)C(=O)N1CCC[C@H]1C(=O)N[C@@H](CC(=O)O)C(=O)N[C@@H](Cc1ccc(O)cc1)C(N)=O)C(C)C)[C@@H](C)O)[C@@H](C)O` [CDC25C30–44 pS] (Ac-NLLLERDT[pS]FTVAPDY-NH2), at SNX27 PDZ, the Kd amounted to 395 ± 63 µM.

With `CC(=O)N[C@@H](CC(N)=O)C(=O)N[C@@H](CC(C)C)C(=O)N[C@@H](CC(C)C)C(=O)N[C@@H](CC(C)C)C(=O)N[C@@H](CCC(=O)O)C(=O)N[C@@H](CCCNC(=N)N)C(=O)N[C@@H](CC(=O)O)C(=O)N[C@H](C(=O)N[C@@H](CO)C(=O)N[C@@H](Cc1ccccc1)C(=O)N[C@H](C(=O)N[C@H](C(=O)N[C@@H](C)C(=O)N1CCC[C@H]1C(=O)N[C@@H](CC(=O)O)C(=O)N[C@@H](Cc1ccc(O)cc1)C(N)=O)C(C)C)[C@@H](C)O)[C@@H](C)O` [CDC25C30–44 wt] (Ac-NLLLERDTSFTVAPDY-NH2), the dissociation constant (Kd) on SNX27 PDZ came to 111 ± 17 µM.

Consider `CSCC[C@H](NC(=O)CNC(C)=O)C(=O)N[C@H](C(=O)N[C@@H](CO)C(=O)N[C@@H](COP(=O)(O)O)C(=O)N[C@H](C(=O)N[C@@H](CO)C(=O)N[C@@H](Cc1ccccc1)C(=O)N[C@@H](CC(N)=O)C(=O)NCC(=O)NCC(=O)N[C@@H](Cc1ccc(O)cc1)C(N)=O)[C@@H](C)O)C(C)C` [DAXX606–616 pS] (Ac-GMVS[pS]TSFNGGY-NH2), for which, on SNX27 PDZ (Fig 4B, SNX27 PDZ, technical triplicates, read-out: IC50 values of displacement curves, with SEM), the IC50 was 427 ± 39 µM. The dissociation constant (Kd) on SNX27 PDZ was found to be 96 ± 5 µM.

Take `CSCC[C@H](NC(=O)CNC(C)=O)C(=O)N[C@H](C(=O)N[C@@H](CO)C(=O)N[C@@H](CO)C(=O)N[C@H](C(=O)N[C@@H](CO)C(=O)N[C@@H](Cc1ccccc1)C(=O)N[C@@H](CC(N)=O)C(=O)NCC(=O)NCC(=O)N[C@@H](Cc1ccc(O)cc1)C(N)=O)[C@@H](C)O)C(C)C` [DAXX606–616 wt] (Ac-GMVSSTSFNGGY-NH2): the Kd on SNX27 PDZ is 300 ± 125 µM.
